# Values quoted from earlier work as cited in paper doi:10.1101/2023.04.03.535218, “Distributable, Metabolic PET Reporting of Tuberculosis” (bioRxiv, 2023).
# Molecular target: T1, OtsA^Sf (Escherichia coli, UniProt P31677)
# T1 construct: C-terminally tagged, purified on Ni-NTA
# T1 sequence (P31677 2-474): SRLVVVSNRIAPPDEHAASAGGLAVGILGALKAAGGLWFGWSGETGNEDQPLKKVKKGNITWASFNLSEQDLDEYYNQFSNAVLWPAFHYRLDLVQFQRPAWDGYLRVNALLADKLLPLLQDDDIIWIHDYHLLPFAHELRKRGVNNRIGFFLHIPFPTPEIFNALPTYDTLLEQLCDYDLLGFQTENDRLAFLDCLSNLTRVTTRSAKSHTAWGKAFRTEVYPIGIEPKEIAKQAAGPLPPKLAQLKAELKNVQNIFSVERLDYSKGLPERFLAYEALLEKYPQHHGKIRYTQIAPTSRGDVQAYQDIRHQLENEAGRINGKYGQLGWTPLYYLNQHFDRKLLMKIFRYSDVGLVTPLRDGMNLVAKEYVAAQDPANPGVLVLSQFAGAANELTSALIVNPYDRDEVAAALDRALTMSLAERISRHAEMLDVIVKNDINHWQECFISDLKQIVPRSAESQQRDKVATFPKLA
# Assay: NADH-linked continuous assay (Methods)
# Assay type: biochemical
# Details: co-substrate UDP-Glc; table note a (taken from Reference 41) is also set on this row, text presents it as own
smiles,measurement,value
O=P(O)(O)OC[C@H]1OC(O)[C@H](O)[C@@H](O)[C@@H]1O (stereo partly shown) [G6P],Km,4.9 ± 0.5 mM
